# Data as given in US10619138B2, “Herbicide-resistant hydroxyphenylpyruvate dioxygenases” (BASF SE, priority 2013, dated 2020).
# Values joined by “and” are separate entries in the source; they are usually repeats but may differ in a detail not shown here. Identical values can stand only once.
# How the values were obtained:
# [1] = target: T1, Arabidopsis HPPD (SEQ ID NO: 42) (Arabidopsis thaliana, UniProt P93836); assay: In vitro HPPD activity assay (HGA by HPLC), wildtype enzyme characterization; type: biochemical; conditions: normalized on Arabidopsis wild-type HPPD; reference enzyme
# T1 construct: Arabidopsis (42); His tag; made in house; host or cells: E. coli BL21 (DE3)
# T1 sequence (P93836 1-445): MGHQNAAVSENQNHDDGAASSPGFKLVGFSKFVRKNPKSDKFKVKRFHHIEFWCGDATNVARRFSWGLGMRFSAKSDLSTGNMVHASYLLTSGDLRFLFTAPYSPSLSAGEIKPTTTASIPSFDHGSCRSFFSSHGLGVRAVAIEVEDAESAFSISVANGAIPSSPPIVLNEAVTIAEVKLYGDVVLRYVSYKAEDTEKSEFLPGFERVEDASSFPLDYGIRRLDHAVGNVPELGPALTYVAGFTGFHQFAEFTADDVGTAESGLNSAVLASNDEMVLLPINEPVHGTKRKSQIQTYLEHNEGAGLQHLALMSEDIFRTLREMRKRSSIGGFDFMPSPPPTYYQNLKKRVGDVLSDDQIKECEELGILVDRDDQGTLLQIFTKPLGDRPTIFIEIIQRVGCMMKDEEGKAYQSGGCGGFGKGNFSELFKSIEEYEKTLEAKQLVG
# Procedure: (§1) The activity assay for HPPD is based on the analysis of homogentisic acid by reversed phase HPLC.
# (§2) The assay mixture can contain 150 mM potassium phosphate buffer pH 7.0, 50 mM L-ascorbic acid, 100 μM Catalase (Sigma-Aldrich), 1 μM FeSO4 and 0.2 units of purified HPPD enzyme in a total volume of 505 μl. 1 unit is defined as the amount of enzyme that is required to produce 1 nmol of HGA per minute at 20° C.
# (§3) The reaction is allowed to proceed for 45 min at room temperature. The reaction is stopped by the addition of 50 μl of 4.5 M phosphoric acid. The sample is filtered using a […] pore size PVDF filtration device.
# (§4) 5 μl of the cleared sample is analyzed on an UPLC HSS T3 column (particle size 1.8 μm, dimensions 2.1×50 mm; Waters) by isocratic elution using 90% 20 mM NaH2PO4 pH 2.2, 10% methanol (v/v).
# (§5) HGA is detected electrochemically at 750 mV (mode: DC; polarity: positive) and quantified by integrating peak areas (Empower software; Waters).
# Inhibitors are dissolved in DMSO (dimethylsulfoxide) to a concentration of 0.5 mM. From this stock solution serial five-fold dilutions are prepared in DMSO, which are used in the assay. The respective inhibitor solution accounts for 1% of the assay volume. […] Activities are normalized by setting the uninhibited enzyme activity to 100%. IC50 values are calculated using non-linear regression.
# (§6) Using methods which are described in the above examples or well known in the art, purified, recombinant wildtype HPPD enzymes are characterized with respect to their kinetic properties and sensitivity towards HPPD inhibiting herbicides. Apparent michaelis constants (Km) and maximal reaction velocities (Vmax) are calculated by non-linear regression with the software GraphPad Prism 5 (GraphPad Software, La Jolla, USA) using a substrate inhibition model. […] Weighted means (by standard error) of Km and IC50 values are calculated from at least three independent experiments.
# (§7) Field performance of the HPPD enzyme, which is used as a herbicide tolerance trait may depend not only on its lack of sensitivity towards HPPD inhibiting herbicides but also on its activity. To assess the potential performance of a herbicide tolerance trait a tolerance index (TI) is calculated using the following formula: […]
# (§8) Easy comparison and ranking of each trait is enabled by normalizing tolerance indexes on Arabidopsis wild-type HPPD.
# [2] = test system: Acidobacterium HPPD (SEQ ID NO: 30); assay: In vitro HPPD activity assay, tolerance index; type: biochemical, Acidobacterium capsulatum; conditions: normalized on Arabidopsis wild-type HPPD
# Procedure: as §1, §2, §3, §4, §5
# (§9) Inhibitors are dissolved in DMSO (dimethylsulfoxide) to a concentration of 0.5 mM. From this stock solution serial five-fold dilutions are prepared in DMSO, which are used in the assay. The respective inhibitor solution accounts for 1% of the assay volume. Thus, final inhibitor concentrations range from 5 μM to 320 pM, respectively. Activities are normalized by setting the uninhibited enzyme activity to 100%. IC50 values are calculated using non-linear regression.
# as §6, with “experiments. The Cheng-Prusoff equation for competitive inhibition (Cheng, Y. C.; Prusoff, W. H. Biochem Pharmacol 1973, 22, 3099-3108) is used to calculate dissociation constants (Ki).” for “experiments.”
# as §7, §8
# [3] = test system: Pontibacter HPPD (SEQ ID NO: 16); assay: In vitro HPPD activity assay, tolerance index; type: biochemical, Pontibacter sp.; conditions: normalized on Arabidopsis wild-type HPPD
# Procedure: as §1, §2, §3, §4, §5, §9
# as §6, with “experiments. The Cheng-Prusoff equation for competitive inhibition (Cheng, Y. C.; Prusoff, W. H. Biochem Pharmacol 1973, 22, 3099-3108) is used to calculate dissociation constants (Ki).” for “experiments.”
# as §7, §8
# [4] = test system: Microscilla HPPD (SEQ ID NO: 20); assay: In vitro HPPD activity assay, tolerance index; type: biochemical, Microscilla marina; conditions: normalized on Arabidopsis wild-type HPPD
# Procedure: as §1, §2, §3, §4, §5, §9
# as §6, with “experiments. The Cheng-Prusoff equation for competitive inhibition (Cheng, Y. C.; Prusoff, W. H. Biochem Pharmacol 1973, 22, 3099-3108) is used to calculate dissociation constants (Ki).” for “experiments.”
# as §7, §8
# [5] = test system: Algoriphagus HPPD (SEQ ID NO: 22); assay: In vitro HPPD activity assay, tolerance index; type: biochemical, Algoriphagus machipongonensis; conditions: normalized on Arabidopsis wild-type HPPD
# Procedure: as §1, §2, §3, §4, §5, §9
# as §6, with “experiments. The Cheng-Prusoff equation for competitive inhibition (Cheng, Y. C.; Prusoff, W. H. Biochem Pharmacol 1973, 22, 3099-3108) is used to calculate dissociation constants (Ki).” for “experiments.”
# as §7, §8
# [6] = test system: Mucilaginibacter HPPD (SEQ ID NO: 28); assay: In vitro HPPD activity assay, tolerance index; type: biochemical, Mucilaginibacter paludis; conditions: normalized on Arabidopsis wild-type HPPD
# Procedure: as §1, §2, §3, §4, §5, §9
# as §6, with “experiments. The Cheng-Prusoff equation for competitive inhibition (Cheng, Y. C.; Prusoff, W. H. Biochem Pharmacol 1973, 22, 3099-3108) is used to calculate dissociation constants (Ki).” for “experiments.”
# as §7, §8
# [7] = test system: Geodermatophilus HPPD (SEQ ID NO: 32); assay: In vitro HPPD activity assay, tolerance index; type: biochemical, Geodermatophilus obscurus; conditions: normalized on Arabidopsis wild-type HPPD
# Procedure: as §1, §2, §3, §4, §5, §9
# as §6, with “experiments. The Cheng-Prusoff equation for competitive inhibition (Cheng, Y. C.; Prusoff, W. H. Biochem Pharmacol 1973, 22, 3099-3108) is used to calculate dissociation constants (Ki).” for “experiments.”
# as §7, §8
# [8] = test system: Herpetosiphon HPPD (SEQ ID NO: 26); assay: In vitro HPPD activity assay, tolerance index; type: biochemical, Herpetosiphon aurantiacus; conditions: normalized on Arabidopsis wild-type HPPD
# Procedure: as §1, §2, §3, §4, §5, §9
# as §6, with “experiments. The Cheng-Prusoff equation for competitive inhibition (Cheng, Y. C.; Prusoff, W. H. Biochem Pharmacol 1973, 22, 3099-3108) is used to calculate dissociation constants (Ki).” for “experiments.”
# as §7, §8
structure (smiles),measurement,setting,value
"CC1(C)c2cccnc2C(O)=C(c2ccc(Cl)nc2Cl)S1(=O)=O [Inhibitor 8, 7-(2,6-dichloro-3-pyridyl)-5,5-dimethyl-6,6-dioxo-thiopyrano[4,3-b]pyridin-8-ol]",TI (normalized tolerance index),[1],1
same,TI (normalized tolerance index),[2],35 and 34.6
same,TI (normalized tolerance index),[3],13.7
same,TI (normalized tolerance index),[4],65.9
same,TI (normalized tolerance index),[5],73.7
same,TI (normalized tolerance index),[6],26
"CC1(C)c2cccnc2C(O)=C(c2c(F)ccc(Cl)c2Br)S1(=O)=O [Inhibitor 9, 7-(2-bromo-3-chloro-6-fluoro-phenyl)-5,5-dimethyl-6,6-dioxo-thiopyrano[4,3-b]pyridin-8-ol]",TI (normalized tolerance index),[1],1
same,TI (normalized tolerance index),[2],20 and 20.2
same,TI (normalized tolerance index),[7],tolerant
same,TI (normalized tolerance index),[3],3.9
same,TI (normalized tolerance index),[4],22.8
same,TI (normalized tolerance index),[5],42.8
same,TI (normalized tolerance index),[8],tolerant
"Cc1nonc1NC(=O)c1ccc(S(C)(=O)=O)c(S(C)(=O)=O)c1C [Inhibitor 10, 2-methyl-N-(4-methyl-1,2,5-oxadiazol-3-yl)-3,4-bis(methylsulfonyl)benzamide]",TI (normalized tolerance index),[1],1
same,TI (normalized tolerance index),[3],6
same,TI (normalized tolerance index),[4],8.3
same,TI (normalized tolerance index),[5],19
same,TI (normalized tolerance index),[6],34.1
